Patent US8691991B2 (priority 2004, dated 2014)

tested on: Pseudotyped HIV vector; test: Pseudotyped HIV vector expressing luciferase reporter assay; assay type: cell-based; settings: Human immunodeficiency virus 1
Procedure: Pseudotyped HIV Vector Expressing Luciferase Reporter Assay
Expression of luciferase reporter following viral integration was performed essentially as described in Jármy, G. et al., J. Medical Virology, 64:223-231, 2001.

CCn1c(=O)c(C(=O)N[C@@H](C)CO)c(O)c2ncc(Cc3ccc(F)cc3)cc21 [Example 124, Sodium 1-ethyl-7-[(4-fluorophenyl)methyl]-3-({[(1S)-2-hydroxy-1-methylethyl]amino}carbonyl)-2-oxo-1,2-dihydro-1,5-naphthyridin-4-olate] and Cn1c(=O)c(C(=O)NC[C@@H](O)CO)c(O)c2ncc(Cc3ccc(F)cc3)cc21 [Example 516, N-[(2R)-2,3-Dihydroxypropyl]-7-[(4-fluorophenyl)methyl]-4-hydroxy-1-methyl-2-oxo-1,2-dihydro-1,5-naphthyridine-3-carboxamide] cannot be ordered by IC50: less than 10 nM for the first, less than 10 nM for the second.

COCCNC(=O)c1c(O)c2ncc(Cc3ccc(F)cc3)cc2n(CC(N)=O)c1=O [Example 162, 1-(2-Amino-2-oxoethyl)-7-[(4-fluorophenyl)methyl]-4-hydroxy-N-[2-(methyloxy)ethyl]-2-oxo-1,2-dihydro-1,5-naphthyridine-3-carboxamide] and CNC(=O)Cn1c(=O)c(C(=O)NCCOC)c(O)c2ncc(Cc3ccc(F)cc3)cc21 [Example 465, 7-[(4-Fluorophenyl)methyl]-4-hydroxy-1-[2-(methylamino)-2-oxoethyl]-N-[2-(methyloxy)ethyl]-2-oxo-1,2-dihydro-1,5-naphthyridine-3-carboxamide] cannot be ordered by IC50: less than 10 nM for the first, less than 10 nM for the second.

O=C(NCCO)c1c(O)c2ncc(Cc3ccc(F)cc3)cc2n(-c2ccc(F)cc2)c1=O [Example 200, 1-(4-Fluorophenyl)-7-[(4-fluorophenyl)methyl]-4-hydroxy-N-(2-hydroxyethyl)-2-oxo-1,2-dihydro-1,5-naphthyridine-3-carboxamide] and COCCNC(=O)c1c(O)c2ncc(Cc3ccc(F)cc3)cc2n(Cc2nccn2C)c1=O [Example 467, 7-[(4-Fluorophenyl)methyl]-4-hydroxy-1-[(1-methyl-1H-imidazol-2-yl)methyl]-N-[2-(methyloxy)ethyl]-2-oxo-1,2-dihydro-1,5-naphthyridine-3-carboxamide] cannot be ordered by IC50: less than 10 nM for the first, less than 10 nM for the second.

CNC(=O)c1c(O)c2ncc(Cc3ccc(F)cc3)cc2n(CC(=O)N(C)C)c1=O [Example 237, 1-[2-(Dimethylamino)-2-oxoethyl]-7-(4-fluorobenzyl)-4-hydroxy-N-methyl-2-oxo-1,2-dihydro-1,5-naphthyridine-3-carboxamide] and C[C@@H](O)CNC(=O)c1c(O)c2ncc(Cc3ccc(F)cc3)cc2n(CCN2CCCC2=O)c1=O [Example 429, 7-(4-Fluorobenzyl)-4-hydroxy-N-[(2R)-2-hydroxypropyl]-2-oxo-1-[2-(2-oxopyrrolidin-1-yl)ethyl]-1,2-dihydro-1,5-naphthyridine-3-carboxamide] cannot be ordered by IC50: less than 10 nM for the first, less than 10 nM for the second.

With CCN(CC)CCNC(=O)c1c(O)c2ncc(Cc3ccccc3)cc2[nH]c1=O [N-[2-(Diethylamino)ethyl]-4-hydroxy-2-oxo-7-(phenylmethyl)-1,2-dihydro-1,5-naphthyridine-3-carboxamide, reference compound] the IC50 was greater than 150 nM.

same assay, conditions: luciferase reporter following viral integration; read-out: IC50

C[C@H](O)CNC(=O)c1c(O)c2ncc(Cc3ccc(F)cc3)cc2n(CCN2CCCC2=O)c1=O [Example 428, 7-(4-Fluorobenzyl)-4-hydroxy-N-[(2S)-2-hydroxypropyl]-2-oxo-1-[2-(2-oxopyrrolidin-1-yl)ethyl]-2-dihydro-1,5-naphthyridine-3-carboxamide] was tested, and the IC50 was less than 10 nM.

tested on: HIV-1 (strain IIIB); test: MT4 cell assay: antiviral HIV activity (HIV-induced cytopathic effect); assay type: cell-based; settings: Human immunodeficiency virus 1, IIIB, control and standard, propidium iodide readout, tested 0.01 to 1 μM in every assay, read-out: expected range of IC50 values
Procedure: Antiviral HIV activity and compound-induced cytotoxicity were measured in parallel by means of a propidium iodide based procedure in the human T-cell lymphotropic virus transformed cell line MT4. Aliquots of the test compounds were serially diluted in medium (RPMI 1640, 10% fetal calf serum (FCS), and gentamycin) in 96-well plates (Costar 3598) using a Cetus Pro/Pette. Exponentially growing MT4 cells were harvested and centrifuged at 1000 rpm for 10 min in a Jouan centrifuge (model CR 4 12). Cell pellets were resuspended in fresh medium (RPMI 1640, 20% FCS, 20% IL-2, and gentamycin) to a density of 5×10^5 cells/ml. Cell aliquots were infected by the addition of HIV-1 (strain IIIB) diluted to give a viral multiplicity of infection of 100×TCID50. […]
For propidium iodide readout, 27 μl of 5% Nonidet-40 was added to each well of the incubation plate. […] The plates were analyzed in an automated assay instrument (Screen Machine, Idexx Laboratories). […]
For MTS readout, 20 μl CellTiter 96 AQ One Solution reagent (Promega #G3582) was added to each well. At 75 minutes following the addition of MTS reagent, absorbance was read at […] using a Tecan Sunrise 96-well plate reader. […]
For each assay plate, the results (relative fluorescence units, rfU, or OD values) of wells containing uninfected cells or infected cells with no compound were averaged, respectively. […]

For Cc1cn([C@H]2C[C@H](N=[N+]=[N-])[C@@H](CO)O2)c(=O)[nH]c1=O [3′-azido-3′-deoxythymidine], the IC50 was 40 to 120 nM.
